Experiments:
Format in all cases: in vivo
Zea mays = assay: Test Example 4: effect on crop by application to foliage (diluvial soil, plastic box)
Summary of the method: (§1)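 Scores run from 0 (herbicidal ratio ≤5%) to 5 (≥90%, almost fully withered) and were assessed three weeks after foliar spraying. Seedlings had been raised for 14 days at 25-30° C in sterilized diluvial soil before treatment, with the emulsion diluted in water to the stated g/ha dose.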

[1] = tested on: directly sowed Oryza sativa; assay: as above
Summary of the method: as §1

Triticum aestivum = assay: as above; details: for e (Triticum aestivum) effect on crop grade: foliage application
Summary of the method: as §1

Glycine max = assay: as above
Summary of the method: as §1

[2] = tested on: Beta vulgaris ssp. vulgaris; assay: as above; details: for f (Beta vulgaris ssp. vulgaris) effect on crop grade: foliage application
Summary of the method: as §1

Brassica campestris L. = assay: as above; details: for g (Brassica campestris L.) effect on crop grade: foliage application
Summary of the method: as §1

[3] = tested on: Echinochloa oryzacola Vasing.; assay: Test Example 2: herbicidal activity, application during weed generation in submerged conditions; details: Eighteenth Table; application herbicide amount 320 g/ha
Summary of the method: (§2)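 Alluvial soil in Wagner pots flooded to 4 cm water depth; seeds sown mixed, grown in greenhouse at 25–30 °C. At one- to two-leaf stage, emulsion diluted with water to the set rate (g/ha) was applied to the water surface. Effect scored 0–5 by herbicidal ratio three weeks later.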

Monochoria vaginalis = assay: as above; details: Eighteenth Table; application herbicide amount 320 g/ha
Summary of the method: as §2

Scirpus juncoides = assay: as above; details: Eighteenth Table; application herbicide amount 320 g/ha
Summary of the method: as §2

Galium spurium = assay: Test Example 4: herbicidal effect by application to foliage (diluvial soil, plastic box); details: for Q (Galium spurium) herbicidal effect grade: foliage application
Summary of the method: as §1

Lolium multiflorum Lam. = assay: as above; details: for K (Lolium multiflorum Lam.) herbicidal effect grade: foliage application
Summary of the method: as §1

Chenopodium album = assay: as above; details: for O (Chenopodium album) herbicidal effect grade: foliage application
Summary of the method: as §1

Apera spica-venti. = assay: as above; details: for L (Apera spica-venti.) herbicidal effect grade: foliage application
Summary of the method: as §1

Avena fatua = assay: as above; details: for I (Avena fatua) herbicidal effect grade: foliage application
Summary of the method: as §1

Veronica persica = assay: as above; details: for R (Veronica persica) herbicidal effect grade: foliage application
Summary of the method: as §1

Stellaria media = assay: as above; details: for P (Stellaria media) herbicidal effect grade: foliage application
Summary of the method: as §1

[4] = tested on: Echinochloa crus-galli var. crus-galli; assay: as above; details: for H (Echinochloa crus-galli var. crus-galli) herbicidal effect grade: foliage application
Summary of the method: as §1

Amaranthus retroflexus = assay: as above; details: for N (Amaranthus retroflexus) herbicidal effect grade: foliage application
Summary of the method: as §1

Digitaria ciliaris = assay: as above; details: for F (Digitaria ciliaris) herbicidal effect grade: foliage application
Summary of the method: as §1

Abutilon theophrasti = assay: as above; details: for M (Abutilon theophrasti) herbicidal effect grade: foliage application
Summary of the method: as §1

Alopecurus myosuroides = assay: as above; details: for J (Alopecurus myosuroides) herbicidal effect grade: foliage application
Summary of the method: as §1

[5] = Application herbicide amount 320 g/ha, foliage application
[6] = Application herbicide amount 320 g/ha
[7] = application to foliage, application herbicide amount 320 g/ha

**Q.** `COCCNc1nnc2c(C(=O)Nc3nnc(C)o3)ccc(C(F)(F)F)n12` [1-109] was tested. Which “c (Zea mays) effect on crop grade” value (Zea mays; [5]) did it give?
**A.** 1 (Herbicidal ratio of 5% or more and less than 20%)

**Q.** What about the “b (directly sowed Oryza sativa) effect on crop grade” value [1, 5] of the same compound?
**A.** 0 (Herbicidal ratio of 5% or less (almost no effect))

**Q.** And the “e (Triticum aestivum) effect on crop grade” value (Triticum aestivum; [6])?
**A.** 0 (Herbicidal ratio of 5% or less (almost no effect))

**Q.** And the “d (Glycine max) effect on crop grade” value (Glycine max; [5])?
**A.** 3 (Herbicidal ratio of 40% or more and less than 70%)

**Q.** What about the “f (Beta vulgaris ssp. vulgaris) effect on crop grade” value [2, 6] of the same compound?
**A.** 4 (Herbicidal ratio of 70% or more and less than 90%)

**Q.** And the “g (Brassica campestris L.) effect on crop grade” value (Brassica campestris L.; [6])?
**A.** 4 (Herbicidal ratio of 70% or more and less than 90%)

**Q.** And the “A (Echinochloa oryzicola Vasing.) herbicidal ratio grade” value [3]?
**A.** 0 (Herbicidal ratio of 5% or less (almost no effect))

**Q.** And the “C (Monochoria vaginalis) herbicidal ratio grade” value (Monochoria vaginalis)?
**A.** 0 (Herbicidal ratio of 5% or less (almost no effect))

**Q.** What about the “B (Scirpus juncoides) herbicidal ratio grade” value (Scirpus juncoides) of the same compound?
**A.** 1 (Herbicidal ratio of 5% or more and less than 20%)

**Q.** What about the “Q (Galium spurium) herbicidal effect grade” value (Galium spurium; [6]) of the same compound?
**A.** 2 (Herbicidal ratio of 20% or more and less than 40%)

**Q.** What about the “K (Lolium multiflorum Lam.) herbicidal effect grade” value (Lolium multiflorum Lam.; [6]) of the same compound?
**A.** 0 (Herbicidal ratio of 5% or less (almost no effect))

**Q.** And the “O (Chenopodium album) herbicidal effect grade” value (Chenopodium album; [6])?
**A.** 5 (Herbicidal ratio of 90% or more (almost completely withered))

**Q.** What about the “L (Apera spica-venti.) herbicidal effect grade” value (Apera spica-venti.; [6]) of the same compound?
**A.** 0 (Herbicidal ratio of 5% or less (almost no effect))

**Q.** And the “I (Avena fatua) herbicidal effect grade” value (Avena fatua; [6])?
**A.** 1 (Herbicidal ratio of 5% or more and less than 20%)

**Q.** And the “R (Veronica persica) herbicidal effect grade” value (Veronica persica; [6])?
**A.** 4 (Herbicidal ratio of 70% or more and less than 90%)

**Q.** And the “P (Stellaria media) herbicidal effect grade” value (Stellaria media; [6])?
**A.** 4 (Herbicidal ratio of 70% or more and less than 90%)

**Q.** What about the “H (Echinochloa crus-galli var. crus-galli) herbicidal effect grade” value [4, 6] of the same compound?
**A.** 5 (Herbicidal ratio of 90% or more (almost completely withered))

**Q.** What about the “N (Amaranthus retroflexus) herbicidal effect grade” value (Amaranthus retroflexus; [6]) of the same compound?
**A.** 4 (Herbicidal ratio of 70% or more and less than 90%)

**Q.** What about the “F (Digitaria ciliaris) herbicidal effect grade” value (Digitaria ciliaris; [6]) of the same compound?
**A.** 4 (Herbicidal ratio of 70% or more and less than 90%)

**Q.** What about the “M (Abutilon theophrasti) herbicidal effect grade” value (Abutilon theophrasti; [6]) of the same compound?
**A.** 4 (Herbicidal ratio of 70% or more and less than 90%)

**Q.** What about the “J (Alopecurus myosuroides) herbicidal effect grade” value (Alopecurus myosuroides; [6]) of the same compound?
**A.** 0 (Herbicidal ratio of 5% or less (almost no effect))

**Q.** `Cn1nnnc1NC(=O)c1ccc(C(F)(F)F)n2c(C[S+](C)[O-])nnc12` (stereo not drawn) [2-033] was tested. Which “b (Zea mays) effect on crop grade” value (Zea mays; foliage application, 320 g/ha) did it give?
**A.** 5 (Herbicidal ratio of 90% or more (almost completely withered))

**Q.** And the “d (directly sowed Oryza sativa) effect on crop grade” value ([1]; foliage application, 320 g/ha)?
**A.** 5 (Herbicidal ratio of 90% or more (almost completely withered))

**Q.** And the “e (Triticum aestivum) effect on crop grade” value (Triticum aestivum; 320 g/ha)?
**A.** 4 (Herbicidal ratio of 70% or more and less than 90%)

**Q.** What about the “c (Glycine max) effect on crop grade” value (Glycine max; foliage application, 320 g/ha) of the same compound?
**A.** 4 (Herbicidal ratio of 70% or more and less than 90%)

**Q.** What about the “f (Beta vulgaris ssp. vulgaris) effect on crop grade” value ([2]; 320 g/ha) of the same compound?
**A.** 5 (Herbicidal ratio of 90% or more (almost completely withered))

**Q.** And the “g (Brassica campestris L.) effect on crop grade” value (Brassica campestris L.; 320 g/ha)?
**A.** 5 (Herbicidal ratio of 90% or more (almost completely withered))

**Q.** And the “A (Echinochloa oryzicola Vasing.) herbicidal ratio grade” value [3]?
**A.** 4 (Herbicidal ratio of 70% or more and less than 90%)

**Q.** And the “C (Monochoria vaginalis) herbicidal ratio grade” value (Monochoria vaginalis)?
**A.** 4 (Herbicidal ratio of 70% or more and less than 90%)

**Q.** And the “B (Scirpus juncoides) herbicidal ratio grade” value (Scirpus juncoides)?
**A.** 3 (Herbicidal ratio of 40% or more and less than 70%)

**Q.** And the “Q (Galium spurium) herbicidal effect grade” value (Galium spurium; 320 g/ha)?
**A.** 5 (Herbicidal ratio of 90% or more (almost completely withered))

**Q.** What about the “K (Lolium multiflorum Lam.) herbicidal effect grade” value (Lolium multiflorum Lam.; 320 g/ha) of the same compound?
**A.** 4 (Herbicidal ratio of 70% or more and less than 90%)

**Q.** What about the “O (Chenopodium album) herbicidal effect grade” value (Chenopodium album; 320 g/ha) of the same compound?
**A.** 5 (Herbicidal ratio of 90% or more (almost completely withered))

**Q.** What about the “L (Apera spica-venti.) herbicidal effect grade” value (Apera spica-venti.; 320 g/ha) of the same compound?
**A.** 5 (Herbicidal ratio of 90% or more (almost completely withered))

**Q.** What about the “I (Avena fatua) herbicidal effect grade” value (Avena fatua; 320 g/ha) of the same compound?
**A.** 5 (Herbicidal ratio of 90% or more (almost completely withered))

**Q.** And the “R (Veronica persica) herbicidal effect grade” value (Veronica persica; 320 g/ha)?
**A.** 5 (Herbicidal ratio of 90% or more (almost completely withered))

**Q.** And the “P (Stellaria media) herbicidal effect grade” value (Stellaria media; 320 g/ha)?
**A.** 5 (Herbicidal ratio of 90% or more (almost completely withered))

**Q.** And the “H (Echinochloa crus-galli var. crus-galli) herbicidal effect grade” value ([4]; 320 g/ha)?
**A.** 5 (Herbicidal ratio of 90% or more (almost completely withered))

**Q.** And the “N (Amaranthus retroflexus) herbicidal effect grade” value (Amaranthus retroflexus; 320 g/ha)?
**A.** 5 (Herbicidal ratio of 90% or more (almost completely withered))

**Q.** And the “F (Digitaria ciliaris) herbicidal effect grade” value (Digitaria ciliaris; 320 g/ha)?
**A.** 5 (Herbicidal ratio of 90% or more (almost completely withered))

**Q.** And the “M (Abutilon theophrasti) herbicidal effect grade” value (Abutilon theophrasti; 320 g/ha)?
**A.** 5 (Herbicidal ratio of 90% or more (almost completely withered))

**Q.** And the “J (Alopecurus myosuroides) herbicidal effect grade” value (Alopecurus myosuroides; 320 g/ha)?
**A.** 4 (Herbicidal ratio of 70% or more and less than 90%)

**Q.** With `Cn1nnnc1NC(=O)c1ccc(C(F)(F)F)n2c(COCC(F)(F)F)nnc12` [2-015] as the compound, how does the “c: effect on crop, Zea mays” value (Zea mays; [7]) read?
**A.** 2 (Herbicidal ratio of 20% or more and less than 40%)

**Q.** And the “b: effect on crop, directly sowed Oryza sativa” value [1, 7]?
**A.** 4 (Herbicidal ratio of 70% or more and less than 90%)

**Q.** And the “e: effect on crop, Triticum aestivum” value (Triticum aestivum; [7])?
**A.** 2 (Herbicidal ratio of 20% or more and less than 40%)

**Q.** And the “d: effect on crop, Glycine max” value (Glycine max; [7])?
**A.** 2 (Herbicidal ratio of 20% or more and less than 40%)

**Q.** What about the “f: effect on crop, Beta vulgaris ssp. vulgaris” value [2, 7] of the same compound?
**A.** 4 (Herbicidal ratio of 70% or more and less than 90%)

**Q.** And the “g: effect on crop, Brassica campestris L.” value (Brassica campestris L.; [7])?
**A.** 3 (Herbicidal ratio of 40% or more and less than 70%)

**Q.** And the “A (Echinochloa oryzicola Vasing.) herbicidal ratio grade” value [3]?
**A.** 4 (Herbicidal ratio of 70% or more and less than 90%)

**Q.** What about the “C (Monochoria vaginalis) herbicidal ratio grade” value (Monochoria vaginalis) of the same compound?
**A.** 4 (Herbicidal ratio of 70% or more and less than 90%)

**Q.** What about the “B (Scirpus juncoides) herbicidal ratio grade” value (Scirpus juncoides) of the same compound?
**A.** 5 (Herbicidal ratio of 90% or more (almost completely withered))

**Q.** What about the “Q: herbicidal effect on Galium spurium” value (Galium spurium; [7]) of the same compound?
**A.** 3 (Herbicidal ratio of 40% or more and less than 70%)

**Q.** And the “K: herbicidal effect on Lolium multiflorum Lam.” value (Lolium multiflorum Lam.; [7])?
**A.** 2 (Herbicidal ratio of 20% or more and less than 40%)

**Q.** And the “O: herbicidal effect on Chenopodium album” value (Chenopodium album; [7])?
**A.** 5 (Herbicidal ratio of 90% or more (almost completely withered))

**Q.** And the “L: herbicidal effect on Apera spica-venti.” value (Apera spica-venti.; [7])?
**A.** 2 (Herbicidal ratio of 20% or more and less than 40%)

**Q.** What about the “I: herbicidal effect on Avena fatua” value (Avena fatua; [7]) of the same compound?
**A.** 2 (Herbicidal ratio of 20% or more and less than 40%)

**Q.** What about the “R: herbicidal effect on Veronica persica” value (Veronica persica; [7]) of the same compound?
**A.** 3 (Herbicidal ratio of 40% or more and less than 70%)

**Q.** What about the “P: herbicidal effect on Stellaria media” value (Stellaria media; [7]) of the same compound?
**A.** 4 (Herbicidal ratio of 70% or more and less than 90%)

**Q.** And the “H: herbicidal effect on Echinochloa crus-galli var. crus-galli” value [4, 7]?
**A.** 5 (Herbicidal ratio of 90% or more (almost completely withered))

**Q.** And the “N: herbicidal effect on Amaranthus retroflexus” value (Amaranthus retroflexus; [7])?
**A.** 5 (Herbicidal ratio of 90% or more (almost completely withered))

**Q.** What about the “F: herbicidal effect on Digitaria ciliaris” value (Digitaria ciliaris; [7]) of the same compound?
**A.** 5 (Herbicidal ratio of 90% or more (almost completely withered))

**Q.** And the “M: herbicidal effect on Abutilon theophrasti” value (Abutilon theophrasti; [7])?
**A.** 5 (Herbicidal ratio of 90% or more (almost completely withered))

**Q.** And the “J: herbicidal effect on Alopecurus myosuroides” value (Alopecurus myosuroides; [7])?
**A.** 2 (Herbicidal ratio of 20% or more and less than 40%)
